The record followed here is US10858388B2, “Selective progesterone receptor modulator (SPRM) regimen” (BAYER PHARMA AKTIENGESELLSCHAFT, priority 2015, dated 2020).

In series [1] the test system is patient diagnosed with Uterine Fibroids. The series is described as follows: Long term treatment of patients with Compound 1, summary findings. It is filed as in vivo, human. An excerpt:
(§1) Compound 1 is a potent Selective Progesterone Receptor Modulator (SPRM) and more particularly a competitive Progesterone Receptor (PR) antagonist creating alternatives for the treatment of Uterine Fibroids. […] Amenorrhea corresponds to the major objective of the treatment i.e. control of excessive uterine bleeding.

Series [2] relates to healthy subjects. Kind of series: Amenorrhea in healthy subjects. Format: in vivo, human.
Excerpt: as §1

As for `C[C@]12C[C@H](c3ccc(S(C)(=O)=O)cc3)C3=C4CCC(=O)C=C4CC[C@H]3[C@@H]1CC[C@@]2(O)C(F)(F)C(F)(F)F` [Compound 1, (11β,17β)-17-Hydroxy-11-[4-(methylsulphonyl)phenyl]-17-(pentafluoroethyl)estra-4,9-dien-3-one], in series [1], the Amenorrhea entry was “observed at early stage and with high intensity”; the “Endometrial hypertrophy (TEAE)” value is on record as “no endometrial hypertrophy was reported”; the Major safety findings result was “no major safety findings were reported”; the Ovulation inhibition entry is “ovulation inhibition was observed”. Also, in series [1], the Pelvic pain entry is listed as “found to be reduced” and the Uterine fibroids size result was “clearly reduced”. The Amenorrhea result in series [2] is “Amenorrhea was observed”.
